Assay results taken from patent US20260309717A1, “PROXIMITY INDUCING SYSTEM AND USES THEREOF” (SORBONNE UNIVERSITE, priority 2022, published 2026).

Legend:
Format in all cases: cell-based
[1] = target: T1, mCherry-^FIREtag / ^FIREmate-ECFP-Giantin (Halorhodospira halophila, UniProt P16113, A30V/C69G/D97P/F96I, form not given/G21E/G25R/K17N/M100R/M109L/Q41L/Q99S/S72T/T101G/V83A/Y94W/Y98T); experiment: Induction of proximity with a non-fluorogenic chromophore, HeLa cells; conditions: 10 μM
T1 construct: FIREmate-ECFP-Giantin(3131-3259) and mCherry-FIREtag in HeLa cells
T1 sequence (P16113 1-114 A30V/C69G/D97P/F96I/G21E/G25R/K17N/M100R/M109L/Q41L/Q99S/S72T/T101G/V83A/Y94W/Y98T): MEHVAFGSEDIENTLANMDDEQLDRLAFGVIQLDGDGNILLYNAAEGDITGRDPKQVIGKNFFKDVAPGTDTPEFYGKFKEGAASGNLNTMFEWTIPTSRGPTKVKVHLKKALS
Method: HeLa cells co-expressing mCherry-^FIREtag and ^FIREmate-ECFP-Giantin were treated with 10 μM HBR-2,5DM (match1), washed with HBR-2,5DM-free medium and then treated with 10 μM HBIR-3M. Cells were imaged by time-lapse spinning-disk confocal microscopy. FIGS. 9A-D are sets of representative confocal micrographs of untreated cells (9A), cells after addition of HBR-2,5DM (match1) (9B), cells after washout of HBR-2,5DM (match1) (9C), and cells after addition of HBIR-3M (9D). (mCherry: ex/em 561/606-675 nm; FIRE: ex/em 488/508-570 nm). Scale bars are 10 μm.
Next, experiments were carried out to investigate whether other chromophores could act as molecular inducer of proximity and provide new properties. In particular, non-fluorogenic chromophores, such as HBIR-3M, were investigated. […] The fusion proteins mCherry-^FIREtag (red fluorescence) and ^FIREmate-ECFP-Giantin (blue fluorescence) were co-expressed in HeLa cells as described above.

[2] = target: T2, ^FIREmate and ^FIREtag (fused to FRB and FKBP) (Halorhodospira halophila, UniProt P16113, A30V/C69G/D97P/F96I, form not given/G21E/G25R/K17N/M100R/M109L/Q41L/Q99S/S72T/T101G/V83A/Y94W/Y98T); experiment: Flow cytometry of fluorescent ternary assembly formation in HEK293T cells co-expressing FKBP-^FIREtag and FRB-^FIREmate
T2 sequence (P16113 1-114 A30V/C69G/D97P/F96I/G21E/G25R/K17N/M100R/M109L/Q41L/Q99S/S72T/T101G/V83A/Y94W/Y98T): T1 sequence (P16113 1-114 A30V/C69G/D97P/F96I/G21E/G25R/K17N/M100R/M109L/Q41L/Q99S/S72T/T101G/V83A/Y94W/Y98T)
Method: FIGS. 2A and 2B are graphs illustrating the fluorogen-dependent interaction between the two polypeptides ^FIREmate and ^FIREtag. The graphs show the normalized average fluorescence detected from about 50,000 HEK293T cells co-expressing the FK506-binding protein (FKBP) fused to ^FIREtag and the FKBP-rapamycin-binding domain of mammalian target of rapamycin (FRB) fused to ^FIREmate treated without (triangles) or with (squares) 500 nM of rapamycin, and with 1, 5, 10, 25 or 50 μM of HBR-2,5DM (2A) or HMBR (2B). Data represent the mean values±SD of three independent experiments.
The formation of a fluorescent ternary assembly was assessed by flow cytometry in HEK293 cells expressing ^FIREmate and ^FIREtag fused to the C-termini of FKBP (FK506-binding protein) and FRB (FKBP-rapamycin-binding domain of mammalian target of rapamycin), […]. FKBP and FRB are able to dimerize upon addition of rapamycin. Treatment of the HEK293 cells with rapamycin is thus expected to induce the dimerization of FKBP and FRB, and subsequently to induce proximity between ^FIREtag and ^FIREmate.

[3] = target: T1, mCherry-^FIREtag / ^FIREmate-ECFP-Giantin; experiment: Recruitment of cytoplasmic protein to the Golgi apparatus, HeLa cells; conditions: 10 μM
Method: FIGS. 6A-E illustrate the recruitment of cytoplasmic proteins to the Golgi apparatus with the proximity inducing system described herein. FIG. 6A is a representation of the experimental design wherein HeLa cells co-expressing mCherry-^FIREtag and ^FIREmate-ECFP-Giantin were treated with 10 µM of match (either HBR-2,5DM or HMBR), and imaged by time-lapse confocal microscopy. FIGS. 6B-C are graphs showing the temporal evolution of the FIRE signal detected upon addition at 0 min of HBR-2,5DM (match1-6B) or HMBR (match2-6C). Data represents the mean values±SD of 10 cells from n=3 independent experiments (6B, D), or of 12 cells from n=3 independent experiments (6C, E). FIGS. 6D-E are sets of representative confocal micrographs of cells before (0 min) and after (5 min) addition of HBR-2,5DM (match1-6D) or HMBR (match2-6E) (mCherry: ex/em 561/606-675 nm; FIRE: ex/em 488/508-570 nm; ECFP: ex/em 445/455-499 nm). […] Scale bars are 20 μm.
(§1) The confocal micrographs were acquired on a Zeiss LSM 980 Laser Scanning Microscope equipped with a plan apochromat 63x/1.4 NA oil immersion objective. ZEN software was used to collect the data. The images were analyzed using Icy (2.4.0.0) and Fiji (Image J). In short, to track fluorescence signal in a specific organelle, a ROI (region of interest) was determined by masking the signal in the ECFP (Enhanced Cyan Fluorescent Protein) channel with the plug-in HK-means with the following parameters: intensity class equals 100, minimum object size (pixels or px) equals 500, maximum object size (px) equals 1500-3000. The signal intensity of the ROI was tracked over time for each channel by using plug-in Active Contours. The background signal was subtracted. Data were processed using GraphPad Prism v9.3.0.
(§2) To further evaluate the scope of the proximity inducing system described herein and show its versatility, ^FIREmate was anchored at the membrane of various organelles or cellular structures so that ^FIREmate faced the cytosol. ^FIREmate was thus fused: • to the N-terminus of the transmembrane domain (amino acid residues at positions 3131-3259) of Giantin for location at the cis-medial rims of the Golgi apparatus (FIG. 6A), • to the N-terminus of the transmembrane domain (amino acid residues at positions 100-134) of the cytochrome b5 (Cb5) for location at the endoplasmic reticulum membrane (FIG. 7A), and • to the C-terminus of the Lyn11 inner membrane targeting sequence for location at the plasma membrane (FIG. 8A).
(§3) For each construct, an ECFP was inserted between ^FIREmate and the other protein domain/sequence to monitor the localization of the resulting fusion protein (blue fluorescence). Each fusion protein was co-expressed in mammalian cells (HeLa cells or HEK293 cells as indicated) together with mCherry-^FIREtag (red fluorescence). […]

[4] = target: T3, mCherry-^FIREtag / ^FIREmate-ECFP-Cb5 (Halorhodospira halophila, UniProt P16113, A30V/C69G/D97P/F96I, form not given/G21E/G25R/K17N/M100R/M109L/Q41L/Q99S/S72T/T101G/V83A/Y94W/Y98T); experiment: Recruitment of cytoplasmic protein to the endoplasmic reticulum, HeLa cells; conditions: 10 μM
T3 construct: FIREmate-ECFP-Cb5(100-134) and mCherry-FIREtag in HeLa cells
T3 sequence (P16113 1-114 A30V/C69G/D97P/F96I/G21E/G25R/K17N/M100R/M109L/Q41L/Q99S/S72T/T101G/V83A/Y94W/Y98T): T1 sequence (P16113 1-114 A30V/C69G/D97P/F96I/G21E/G25R/K17N/M100R/M109L/Q41L/Q99S/S72T/T101G/V83A/Y94W/Y98T)
Method: FIGS. 7A-E illustrate the recruitment of cytoplasmic proteins to the endoplasmic reticulum with the proximity inducing system described herein. FIG. 7A is a representation of the experimental design wherein HeLa cells co-expressing mCherry-^FIREtag and ^FIREmate-ECFP-Cb5 were treated with 10 μM of match (either HBR-2,5DM or HMBR), and imaged by time-lapse confocal microscopy. FIGS. 7B-C are graphs showing the temporal evolution of the FIRE signal detected upon addition at 0 min of HBR-2,5DM (match1-7C) or HMBR (match2-7D). Data represents the mean values±SD of 17 cells from n=3 independent experiments (7B, D), or of 18 cells from n=3 independent experiments (7C, E). FIGS. 7D-E are sets of representative confocal micrographs of cells before (0 min) and after (5 min) addition of HBR-2,5DM (match1-7D) or HMBR (match2-7E) (mCherry: ex/em 561/606-675 nm; FIRE: ex/em 488/508-570 nm; ECFP: ex/em 445/455-499 nm). […] Scale bars are 20 μm.
as §1, §2, §3

[5] = target: T4, mCherry-^FIREtag / Lyn11-ECFP-^FIREmate (Halorhodospira halophila, UniProt P16113, A30V/C69G/D97P/F96I, form not given/G21E/G25R/K17N/M100R/M109L/Q41L/Q99S/S72T/T101G/V83A/Y94W/Y98T); experiment: Recruitment of cytoplasmic protein to the plasma membrane, HEK293 cells; conditions: 10 μM
T4 construct: Lyn11-ECFP-FIREmate and mCherry-FIREtag in HEK293 cells
T4 sequence (P16113 1-114 A30V/C69G/D97P/F96I/G21E/G25R/K17N/M100R/M109L/Q41L/Q99S/S72T/T101G/V83A/Y94W/Y98T): T1 sequence (P16113 1-114 A30V/C69G/D97P/F96I/G21E/G25R/K17N/M100R/M109L/Q41L/Q99S/S72T/T101G/V83A/Y94W/Y98T)
Method: FIGS. 8A-E illustrate the recruitment of cytoplasmic proteins to the plasma membrane with the proximity inducing system described herein. FIG. 8A is a representation of the experimental design wherein HEK293 cells co-expressing mCherry-^FIREtag and Lyn11-ECFP-^FIREmate were treated with 10 μM of match (either HBR-2,5DM or HMBR), and imaged by time-lapse confocal microscopy. FIGS. 8B-C are graphs showing the temporal evolution of the FIRE signal detected upon addition at 0 min of HBR-2,5DM (match1-8B) or HMBR (match2-8C). Data represents the mean values±SD of 22 cells from n=3 independent experiments (8B, D), or of 30 cells from n=3 independent experiments (8C, E). FIGS. 8D-E are sets of representative confocal micrographs of cells before (0 min) and after (5 min) addition of HBR-2,5DM (match1-8D) or HMBR (match2-8E) (mCherry: ex/em 561/606-675 nm; FIRE: ex/em 488/508-570 nm; ECFP: ex/em 445/455-499 nm). […] Scale bars are 20 μm.
as §1, §2, §3

[6] = test system: mCherry-FKBP-^FIREtag / TOM20-^FIREmate / FRB-ECFP-Giantin; experiment: Orthogonality with FRB-FKBP-rapamycin CIP system, confocal microscopy, HeLa cells; conditions: simultaneous addition of 10 μM HBR-2,5DM and 500 nM rapamycin
Method: FIG. 12A is a representation of the experimental design wherein HeLa cells co-expressing mCherry-FKBP-^FIREtag, TOM20-^FIREmate and FRB-ECFP-Giantin were treated with 10 μM of match (i.e., HBR-2,5DM) and 500 nM rapamycin, and imaged by time-lapse confocal microscopy. FIG. 12B is a set of representative confocal micrographs of cells before and after addition of HBR-2,5DM (match1) and rapamycin (rap) (mCherry: ex/em 561/606-675 nm; FIRE: ex/em 488/508-570 nm; ECFP: ex/em 445/455-499 nm). Scale bars are 20 μm.
as §1, with “v9.3.0. […]” for “v9.3.0.”

Q: For `Cc1cc(/C=C2\SC(=O)NC2=S)ccc1O` [HBIR-3M, (Z)-5-(4-hydroxy-3-methylbenzylidene)-4-thioxo-1,3-thiazolidin-2-one], which “assembly with ^FIREtag and ^FIREmate (tightness, fluorescence)” value [1] is on record?
A: The value was “very tight non-fluorescent ‘invisible’ assembly”.

Q: What about the “induction of proximity relative to HBR-2,5DM” value ([1]; cycles of sequential addition and removal) of the same molecule?
A: Its value is “as efficiently as HBR-2,5DM”.

Q: For `Cc1cc(/C=C2\SC(=S)NC2=O)ccc1O` [HMBR, (Z)-5-(4-hydroxy-3-methylbenzylidene)-2-thioxo-1,3-thiazolidin-4-one], which “dimerization of FKBP and FRB (induced proximity)” value ([2]; absence of rapamycin) is on record?
A: The value was “able to induce the dimerization of FKBP and FRB”.

Q: And the “formation of a ternary fluorescent assembly” value ([2]; fluorogen 1, 5, 10, 25 or 50 μM, HEK293 cells)?
A: Its value is “induced the formation of a ternary fluorescent assembly at all tested fluorogen concentrations”.

Q: And the “dependence of ternary fluorescent assembly formation on rapamycin (initial proximity)” value ([2]; with or without 500 nM rapamycin, fluorogen 1-50 μM)?
A: Its value is “regardless of the presence or absence of rapamycin”.

Q: And the “FIRE signal at the Golgi apparatus” value [3]?
A: The value was “simultaneous appearance of green fluorescence”.

Q: And the “translocation of mCherry-^FIREtag to the Golgi apparatus” value [3]?
A: The value was “rapid translocation of mCherry-^FIREtag to the organelle”.

Q: What about the “FIRE signal at the endoplasmic reticulum” value [4] of the same molecule?
A: The value was “simultaneous appearance of green fluorescence”.

Q: What about the “translocation of mCherry-^FIREtag to the endoplasmic reticulum” value [4] of the same molecule?
A: The value was “rapid translocation of mCherry-^FIREtag to the organelle”.

Q: And the “FIRE signal at the plasma membrane” value [5]?
A: The value was “simultaneous appearance of green fluorescence”.

Q: What about the “translocation of mCherry-^FIREtag to the plasma membrane” value [5] of the same molecule?
A: Its value is “rapid translocation of mCherry-^FIREtag to the organelle”.

Q: For `CO[C@H]1C[C@@H]2CC[C@@H](C)[C@@](O)(O2)C(=O)C(=O)N2CCCC[C@H]2C(=O)O[C@H]([C@H](C)C[C@@H]2CC[C@@H](O)[C@H](OC)C2)CC(=O)[C@H](C)/C=C(\C)[C@@H](O)[C@@H](OC)C(=O)[C@H](C)C[C@H](C)/C=C/C=C/C=C/1C` [rapamycin, reference compound], which “translocation of mCherry-FKBP-^FIREtag” value [6] is on record?
A: The value was “triggered the translocation of mCherry-FKBP-^FIREtag to the Golgi apparatus and to the mitochondria”.
